Source: patent US8778984B2, “Aldosterone synthase inhibitor” (Eli Lilly and Company, priority 2011, dated 2014)

How the values were obtained:
[1] = target: T1, human cyp11B2 (Homo sapiens, UniProt P19099); experiment: Aldosterone Synthase Inhibitor Assay (V79-hcyp11B2 cells, aldosterone by LC-MS); assay type: cell-based; conditions: aldosterone production from 1 μM DOC, 24 hours incubation, geometric means, separate experiments
T1 construct: expressed in transfected cells
T1 sequence (P19099 25-503): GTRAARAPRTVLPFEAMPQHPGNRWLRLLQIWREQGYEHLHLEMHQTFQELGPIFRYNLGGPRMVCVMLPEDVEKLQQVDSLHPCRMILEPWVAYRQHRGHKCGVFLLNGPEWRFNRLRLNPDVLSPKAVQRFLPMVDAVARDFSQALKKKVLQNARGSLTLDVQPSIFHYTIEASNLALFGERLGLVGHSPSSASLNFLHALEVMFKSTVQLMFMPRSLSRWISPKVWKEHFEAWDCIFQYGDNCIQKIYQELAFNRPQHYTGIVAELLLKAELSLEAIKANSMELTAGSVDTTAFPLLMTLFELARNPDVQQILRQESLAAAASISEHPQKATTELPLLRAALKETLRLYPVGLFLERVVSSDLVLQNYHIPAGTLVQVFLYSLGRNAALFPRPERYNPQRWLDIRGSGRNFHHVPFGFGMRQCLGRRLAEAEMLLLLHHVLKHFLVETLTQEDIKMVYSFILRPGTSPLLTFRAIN
Description: Chinese hamster fibroblast cells (V79, ATCC™) constitutively expressing human cyp11B2 are established by transfection with a mammalian expression vector harboring the human cyp11B2 cDNA under CMV promoter and a neomycin antibiotic resistant gene for selection in mammalian cells. V79 cells are transfected in T225 cm^2 flasks with the lipofectamine transfection reagent and the human cyp11B2 cDNA. Positive clones are selected with the selection antibiotic geneticin at 1 mg/mL.
Aldosterone production from transfected cells is initiated by the addition of 1 μM DOC in the medium. After 24 hours incubation, 100 μL cell culture medium is collected and aldosterone concentration in the medium is determined using a liquid chromatography-mass spectrometry (LC-MS) method. […] The wells are then extracted 3× with EtOAc (150 μl) using the FX, combining the organic layers in a new 96-well plate. The solvent is dried in a GeneVac HT-4 or under nitrogen. […] A 25 μl aliquot of the sample is injected and a gradient from 20-100% ACN+0.1% formic acid (FA) in 1 min is initiated. Aldosterone elutes at 0.7 min. Starting conditions are held for 1 minute to re-equilibrate the column. An ABI 4000 tandem mass spectrometer is used for MS/MS analysis in the negative ion mode. […] The area under the peak from each transition is added together to comprise the signal from aldosterone and IS, respectively. […] The detection limit for aldosterone is […].
DOC and various concentrations of test compounds in 1:3 dilution increments are added to the cell culture medium. After 24 hours incubation, 100 μl of cell medium are collected and aldosterone concentration determined as described above. Data are fit to a 4 parameter-fit logistics curve to determine IC50 values.

[2] = test system: aldosterone production in rats; experiment: Inhibition of Aldosterone Synthase in Rats (rat sodium-deficiency diet model); assay type: in vivo; conditions: Example 1 10.0 mg/kg, Example 49 30.0 mg/kg, Fadrozole 1.0 mg/kg
Description: The effect of compounds on aldosterone production in rats is assessed using the rat sodium-deficiency diet model. […] At 3 hours post dose rats are bled (˜0.5 mL) from the ocular orbit under isoflurane anesthesia. At 6 hours post-dose the rats are euthanized with CO2 and bled by cardiac puncture. Blood samples are clotted at least 30 minutes and serum is prepared and stored at approximately −80° C. until assayed. Aldosterone, steroids, and compound exposure are analyzed by mass spectroscopy.

[3] = test system: testosterone production from H295R cells; experiment: cells; assay type: cell-based, human; conditions: Homo sapiens, NCI-H295R, 48 h, read-out: Testosterone IC50 (μM)
Description: (§1) The human adrenocarcinoma cell line H295R is used to monitor the production of testosterone and estradiol in vitro. […] Various concentrations of test compounds in 1:3 dilution increments are added to the cell culture medium. After incubation for 48 hours, 100 μl culture medium is collected and d5-estradiol and d3-testosterone are added as ISs for estradiol and testosterone respectively.
(§2) An equal volume of sodium carbonate/sodium bicarbonate buffer (0.5 mol/L, pH 9.4) is added to the samples followed by freshly prepared dansyl chloride solution (50 μl, 20 mg/mL). Samples are mixed and incubated for 60 min at 60° C. The samples are then extracted 3× with EtOAc ([…]) using the FX, combining the organic layers in a new deep-well 96-well plate. The solvent is then dried in a GeneVac HT-4 or under nitrogen. The FX is used to reconstitute the samples in 50% MeOH/water ([…]) and the plates are heat-sealed.
(§3) A 40 μl aliquot of the sample is injected and a gradient from 20-100% MeOH in 0.95 min is initiated. An ABI QTRAP 4000 tandem mass spectrometer is used for MS/MS analysis in the positive ion mode. […] These peaks are separately integrated to give the peak areas. The area ratios of testosterone/IS and estradiol/IS are used to determine testosterone and estradiol concentrations by comparison to their respective standard curves. The detection limits for testosterone and estradiol are 0.1 ng/mL and 0.01 ng/mL respectively.

[4] = test system: estradiol production from H295R cells; experiment: cells; assay type: cell-based, human; conditions: Homo sapiens, NCI-H295R, 48 h, read-out: Estradiol IC50 (μM)
Description: as §1, §2, §3

`FC(F)(F)c1ccc(C2CCc3[nH]ncc32)cc1` (racemic) [Example 18, (+/−)-4-(4-Trifluoro-methylphenyl)-1,4,5,6-tetrahydrocyclopenta[c] pyrazole] was tested, and the IC50 [1] was 157 nM.

For `N#Cc1ccc(C2CCCc3[nH]ncc32)cc1F` (racemic) [Example 59, (+/−)-2-Fluoro-4-(4,5,6,7-tetrahydro-1H-indazol-4-yl)benzonitrile], the IC50 [1] was 5 nM.

With `Cc1ccc(C2CCCc3n[nH]cc32)cc1` (single isomer, unassigned; isomer 2) [Example 54, 4-(p-Tolyl)-4,5,6,7-tetrahydro-2H-indazole-isomer 2] the IC50 [1] was 154 nM.

In the case of `N#Cc1ccc(C2CCCc3cncn32)cc1` (stereo not drawn) [Fadrozole, fadrozole, reference compound], the “% Inhibition 3 hrs” value ([2]; inhibition of aldosterone vs vehicle, 3 hrs post oral dose) is reported as 64.4%, the “% Inhibition 6 hrs” value ([2]; inhibition of aldosterone vs vehicle, 6 hrs post oral dose) is reported as 55.2% and the “Aldosterone (pg/mL) 3 hrs” value ([2]; serum, 3 hrs post oral dose, rat Na-deficient diet model) is reported as 669.8 pg/mL. The “Aldosterone (pg/mL) 6 hrs” value ([2]; serum, 6 hrs post oral dose, rat Na-deficient diet model) was 1144.2 pg/mL.

`N#Cc1ccc([C@H]2CCc3cncn32)c(F)c1` [Novartis LCI699, reference compound] showed an IC50 [3] of 5.01 µM and an IC50 [4] of 0.123 µM.
